Experimental data from patent US10435392B2, “Bipyrazole derivatives as JAK inhibitors” (Incyte Corporation, priority 2013, dated 2019).
Counter-ions that a name gives are not always drawn.

Each compound was assayed on human JAK1 (assay: In vitro JAK kinase assay (HTRF, phosphorylation of a biotinylated peptide), JAK1). Conditions: ratio of IC50 values at 1 mM ATP.
Assay type: biochemical
Protocol: The catalytic activity of JAK1, JAK2 or JAK3 was assayed by measuring the phosphorylation of a biotinylated peptide. The phosphorylated peptide was detected by homogenous time resolved fluorescence (HTRF). […] Reactions were carried out at room temperature for 1 hour and then stopped with 20 μL 45 mM EDTA, 300 nM SA-APC, 6 nM Eu-Py20 in assay buffer (Perkin Elmer, Boston, Mass.). Binding to the Europium labeled antibody took place for 40 minutes and HTRF signal was measured on a Fusion plate reader (Perkin Elmer, Boston, Mass.).
For `Cc1[nH]ncc1-c1cnn(C2(CC#N)CN(c3cnc(C(=O)N[C@@H](C)C(F)(F)F)cn3)C2)c1` [Example 1, 5-[3-(Cyanomethyl)-3-(3′-methyl-1H,1′H-4,4′-bipyrazol-1-yl)azetidin-1-yl]-N-[(1S)-2,2,2-trifluoro-1-methylethyl]pyrazine-2-carboxamide trifluoroacetate], the JAK2/JAK1 was over 10. For `Cc1n[nH]cc1-c1cnn(C2(CC#N)CN(c3cnc(C(=O)NC(C)C)cn3)C2)c1` [Example 2, 5-[3-(Cyanomethyl)-3-(3′-methyl-1H,1′H-4,4′-bipyrazol-1-yl)azetidin-1-yl]-N-isopropylpyrazine-2-carboxamide Trifluoroacetate], the JAK2/JAK1 was over 10. Work on `Cc1n[nH]cc1-c1cnn(C2(CC#N)CN(c3ccc(C(=O)NC(C)C)cc3)C2)c1` [Example 3, 4-[3-(Cyanomethyl)-3-(3′-methyl-1H,1′H-4,4′-bipyrazol-1-yl)azetidin-1-yl]-N-isopropylbenzamide Trifluoroacetate] yielded a JAK2/JAK1 of over 10. `C[C@H](NC(=O)c1cc(F)c(N2CC(CC#N)(n3cc(-c4cn[nH]c4)cn3)C2)cc1F)C(F)(F)F` [Example 5, 4-[3-(1H,1′H-4,4′-Bipyrazol-1-yl)-3-(cyanomethyl)azetidin-1-yl]-2,5-difluoro-N-[(1S)-2,2,2-trifluoro-1-methylethyl]benzamide Trifluoroacetate] gave a JAK2/JAK1 of over 10. `Cc1n[nH]cc1-c1cn(C2(CC#N)CN(c3cnc(C(=O)NC(C)C)cn3)C2)nc1C` [Example 6, 5-[3-(Cyanomethyl)-3-(3,3′-dimethyl-1H,1′H-4,4′-bipyrazol-1-yl)azetidin-1-yl]-N-isopropylpyrazine-2-carboxamide Trifluoroacetate] was tested, and the JAK2/JAK1 was over 10. `Cc1n[nH]c(C)c1-c1cnn(C2(CC#N)CN(c3cnc(C(=O)N[C@@H](C)C(F)(F)F)cn3)C2)c1` [Example 9, 5-[3-(Cyanomethyl)-3-(3′,5′-dimethyl-1H,1′H-4,4′-bipyrazol-1-yl)azetidin-1-yl]-N-[(1S)-2,2,2-trifluoro-1-methylethyl]pyrazine-2-carboxamide Trifluoroacetate] showed a JAK2/JAK1 of over 10. Compound `Cc1n[nH]cc1-c1cn(C2(CC#N)CN(c3cc(F)c(C(=O)N[C@@H](C)C(F)(F)F)cc3F)C2)nc1CO` [Example 13, 4-{3-(Cyanomethyl)-3-[3-(hydroxymethyl)-3′-methyl-1H,1′H-4,4′-bipyrazol-1-yl]azetidin-1-yl}-2,5-difluoro-N-[(1S)-2,2,2-trifluoro-1-methylethyl]benzamide] has a JAK2/JAK1 of over 10.
